Where only a bound is given, the exact number is not on record here.

For this assay, the target named is mitochondrial RNA-polymerase (POLRMT) (Mus musculus, UniProt Q8BKF1). The experiment in a line: Homogeneous TR-FRET assay for mitochondrial transcription activity. In kind it is biochemical. The settings on record: homogeneous TR-FRET assay according to Example 4; read-out: mitochondrial transcription activity (IC-50). The source says: The TR-FRET assay was basically conducted as described in WO 2016/193231A1, especially as described in example 1 (hereby incorporated by reference). With respect to the background of the mitochondrial transcription it is referred to Falkenberg et al. (2002) and Posse et al. (Posse et al. 2015). The method monitors the activity of mitochondrial RNA-polymerase via detection of the formation of its product, a 407 bp long RNA sequence. Detection of the product is facilitated by hybridization of two DNA-oligonucleotide probes to specific and adjacent sequences within the RNA product sequence. Upon annealing of the probes, two fluorophores that are coupled directly to an acceptor nucleotide probe (ATT0647, 5′) or introduced via a coupled streptavidin interacting with a biotinylated donor nucleotide probe on the other side (Europium cryptate, 3) are brought into sufficient proximity to serve as a fluorescence-donor-acceptor pair as generally described in Walters and Namchuk (2003). Thus, a FRET signal at 665 nm is generated upon excitation at 340 nm.
Sequence of mitochondrial RNA-polymerase (POLRMT) (Q8BKF1 42-1207): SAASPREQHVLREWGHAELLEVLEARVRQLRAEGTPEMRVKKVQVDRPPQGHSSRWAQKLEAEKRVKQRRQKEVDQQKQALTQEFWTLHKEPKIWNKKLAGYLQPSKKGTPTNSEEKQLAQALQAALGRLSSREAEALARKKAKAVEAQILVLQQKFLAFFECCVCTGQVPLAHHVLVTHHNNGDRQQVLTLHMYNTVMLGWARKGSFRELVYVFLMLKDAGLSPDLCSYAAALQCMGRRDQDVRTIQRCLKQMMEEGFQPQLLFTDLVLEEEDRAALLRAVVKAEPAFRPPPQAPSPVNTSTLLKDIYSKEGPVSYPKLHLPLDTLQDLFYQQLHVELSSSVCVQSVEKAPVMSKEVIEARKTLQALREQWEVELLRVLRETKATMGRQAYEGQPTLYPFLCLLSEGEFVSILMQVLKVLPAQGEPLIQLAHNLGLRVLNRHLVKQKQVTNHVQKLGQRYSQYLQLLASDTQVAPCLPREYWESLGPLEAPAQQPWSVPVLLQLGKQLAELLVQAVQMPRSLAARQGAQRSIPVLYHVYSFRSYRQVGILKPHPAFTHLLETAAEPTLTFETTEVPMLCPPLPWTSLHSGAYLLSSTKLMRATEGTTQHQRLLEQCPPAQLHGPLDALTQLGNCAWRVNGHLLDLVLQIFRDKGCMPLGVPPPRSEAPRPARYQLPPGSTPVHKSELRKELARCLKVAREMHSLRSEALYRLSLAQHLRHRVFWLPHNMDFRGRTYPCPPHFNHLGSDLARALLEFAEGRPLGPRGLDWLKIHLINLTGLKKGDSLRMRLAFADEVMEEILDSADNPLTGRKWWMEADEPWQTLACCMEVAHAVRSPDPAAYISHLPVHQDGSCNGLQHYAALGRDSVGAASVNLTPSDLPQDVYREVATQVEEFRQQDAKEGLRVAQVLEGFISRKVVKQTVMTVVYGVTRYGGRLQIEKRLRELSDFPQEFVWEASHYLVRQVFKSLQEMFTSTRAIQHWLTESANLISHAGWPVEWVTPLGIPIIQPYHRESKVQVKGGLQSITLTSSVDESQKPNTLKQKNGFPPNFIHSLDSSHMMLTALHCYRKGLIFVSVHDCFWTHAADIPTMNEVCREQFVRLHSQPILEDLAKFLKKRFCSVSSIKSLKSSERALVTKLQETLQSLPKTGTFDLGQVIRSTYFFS
Briefly, the protocol described here was applied for screening and activity determination in a low-volume 384-well microtiter plate with non-binding surface. For high-throughput application in the 1536-well microtiter plate format, volumes of the reagent mixes were adjusted, maintaining the volumetric ratio. Proteins POLRMT (NM_172551.3), TFAM (NM_009360.4) and TFB2M (NM_008249.4) were diluted from their stocks to working concentrations of 150 nM, 1.8 μM and 330 nM respectively, in a dilution buffer containing 100 mM Tris-HCl pH 8.0, 200 mM NaCl, 10% (v/v) glycerole, 2 mM glutathione (GSH), 0.5 mM EDTA and 0.1 mg/mL BSA. Protein dilutions and template DNA, comprising a pUC18 plasmid encoding the mitochondrial light strand promoter, restriction linearized proximal to the promoter 3′-end (pUC-LSP), were mixed at the twofold final assay-concentration in a reaction buffer, containing 10 mM Tris-HCl pH 7.5, 10 mM MgCl2, 40 mM NaCl, 2 mM GSH, 0.01% (w/v) Tween-20 and 0.1 mg/mL BSA.
5 μL of this mix were dispensed, depending on the chosen microtiter plate format, using multi-channel pipettes or a Multidrop® dispenser (Thermo Fisher Scientific, Waltham Mass.) into the wells of a microtiter plate and incubated at room temperature (RT) for 10 min. Chemical compounds under scrutiny in the assay were applied using contact-free acoustic droplet-dispensing (Echo520® Labcyte Inc., Sunnyvale Calif.) from 10 mM compound stocks in 100% DMSO, to a final concentration of 10 μM or in serial dilution series of the required concentration range. Equal amounts of DMSO without any compound were added to positive control samples, followed by an incubation step at RT for 10 min.
The enzymatic reaction was started by the addition of 5 μL of a mix of dNTPs in reaction buffer to a final concentration of 500 μM each. No nucleotide mix was added to negative control samples. The content of the wells was mixed using a VarioTeleshaker™ (Thermo Fisher Scientific, Waltham Mass.) at 1500 rpm for 45 sec after which the microtiter plate was centrifuged at 500×g for 1 min. The samples were incubated for 2 h at RT with humidity control to avoid evaporation. The detection reagents were prepared in a buffer that was composed, such that the enzymatic reaction was terminated due to chelating of Mg-ions and increased ionic strength, containing 50 mM Tris-HCl pH 7.5, 700 mM NaCl, 20 mM EDTA, and 0.01% (w/v) Tween-20. Importantly Eu-cryptate-coupled streptavidin had to be preincubated with a 100-fold molar excess of a random sequence oligonucleotide for 10 min at RT in the dark to block unspecific binding of single stranded RNA to the protein. Subsequently, the blocked streptavidin(-Eu) was mixed with the DNA-probes on ice and kept away from light until use. […]
(In general: Time-resolved FRET reads energy transfer from a long-lived donor to a nearby acceptor.)
`CCOC(=O)[C@H]1CCCN(C(=O)C(C)Oc2ccc3c(-c4ccccc4)cc(=O)oc3c2)C1` (mixture of isomers) [Compound 64, ethyl rac-(3S)-1-[2-(2-oxo-4-phenyl-chromen-7-yl)oxypropanoyl]piperidine-3-carboxylate]: the IC50 was 1 to 10 µM.
`CC(Oc1ccc2c(-c3ccccc3)cc(=O)oc2c1)C(=O)N1CCC[C@H](C(=O)N(C)C)C1` (mixture of isomers) [Compound 68, rac-(3S)-N,N-dimethyl-1-[2-(2-oxo-4-phenyl-chromen-7-yl)oxpropanoyl]piperidine-3-carboxamide]: the IC50 lay within 1 to 10 µM.
For the molecule `CCOC(=O)C(C)Oc1ccc2c(-c3ccc(Cl)cc3)cc(=O)oc2c1` (stereo not drawn) [Compound 3, ethyl 2-[4-(4-chlorophenyl)-2-oxo-chromen-7-yl]oxypropanoate], the IC50 was in the range of 0.1 to 1 µM.
To `CCOC(=O)C(C)Oc1ccc2c(-c3cccc(Cl)c3)cc(=O)oc2c1` (stereo not drawn) [Compound 4, ethyl 2-[4-(3-chlorophenyl)-2-oxo-chromen-7-yl]oxypropanoate] belongs 0.1 to 1 µM.
For the molecule `CC(Oc1ccc2c(-c3ccccc3)cc(=O)oc2c1)C(=O)Nc1ccc(CCCO)cc1` (stereo not drawn) [Compound 5, N-[4-(3-hydroxypropyl)phenyl]-2-(2-oxo-4-phenyl-chromen-7-yl)oxy-propanamide], the IC50 was in the range of 0.1 to 1 µM.
Regarding `CC(Oc1ccc2c(-c3ccccc3)cc(=O)oc2c1)C(=O)Nc1ccccn1` (stereo not drawn) [Compound 6, 2-(2-oxo-4-phenyl-chromen-7-yl)oxy-N-(2-pyridyl)propanamide], the IC50 lay in the range of 0.1 to 1 µM.
Take `CCOC(=O)C(C)Oc1ccc2c(-c3ccc(F)cc3)cc(=O)oc2c1` (stereo not drawn) [Compound 8, ethyl 2-[4-(4-fluorophenyl)-2-oxo-chromen-7-yl]oxypropanoate]: the IC50 is 0.1 to 1 µM.
As to `CCOC(=O)C(C)Oc1ccc2c(-c3ccc(C)cc3)cc(=O)oc2c1` (stereo not drawn) [Compound 9, ethyl 2-[2-oxo-4-(p-tolyl)chromen-7-yl]oxypropanoate], the IC50 lay in the range of 0.1 to 1 µM.
On to `COC(=O)C1CCCN(C(=O)C(C)Oc2cc3oc(=O)cc(-c4ccccc4)c3cc2Cl)C1` (stereo not drawn) [Compound 10, methyl 1-[2-(6-chloro-2-oxo-4-phenyl-chromen-7-yl)oxypropanoyl]piperidine-3-carboxylate], for which the IC50 was 0.1 to 1 µM.
As for `CC(Oc1cc2oc(=O)cc(-c3ccccc3)c2cc1Cl)C(=O)Nc1ccccn1` (stereo not drawn) [Compound 11, 2-(6-chloro-2-oxo-4-phenyl-chromen-7-yl)oxy-N-(2-pyridyl)propanamide], the IC50 lay in the range of 0.1 to 1 µM.
As to `CC(Oc1cc2oc(=O)cc(-c3ccccc3)c2cc1Cl)C(=O)N1CCCC(C(=O)O)C1` (stereo not drawn) [Compound 13, 1-[2-(6-chloro-2-oxo-4-phenyl-chromen-7-yl)oxypropanoyl]piperidine-3-carboxylic acid], the IC50 fell in the range of 0.1 to 1 µM.
Consider `CC(Oc1ccc2c(-c3ccccc3)cc(=O)oc2c1)C(=O)N1CCCC(C(=O)O)C1` (stereo not drawn) [Compound 14, 1-[2-(2-oxo-4-phenyl-chromen-7-yl)oxypropanoyl]piperidine-3-carboxylic acid], for which the IC50 fell in the range of 0.1 to 1 µM.
To `CC(Oc1ccc2c(-c3ccccc3)cc(=O)oc2c1)C(=O)Nc1ccc(CCO)cc1` (stereo not drawn) [Compound 16, N-[4-(2-hydroxyethyl)phenyl]-2-(2-oxo-4-phenyl-chromen-7-yl)oxy-propanamide] belongs 0.1 to 1 µM; to `CC(Oc1cc2oc(=O)cc(-c3ccccc3)c2cc1Cl)C(=O)Nc1ccc(CCO)cc1` (stereo not drawn) [Compound 17, 2-(6-chloro-2-oxo-4-phenyl-chromen-7-yl)oxy-N-[4-(2-hydroxyethyl)phenyl]propanamide], 0.1 to 1 µM; to `CC(Oc1ccc2c(-c3ccccc3)cc(=O)oc2c1)C(=O)N(C)c1ccc(CCO)cc1` (stereo not drawn) [Compound 18, N-[4-(2-hydroxyethyl)phenyl]-N-methyl-2-(2-oxo-4-phenyl-chromen-7-yl)oxy-propanamide], 0.1 to 1 µM.
In the case of `CC(Oc1ccc2c(-c3ccccc3)cc(=O)oc2c1)C(=O)N1CCCC(c2nn[nH]n2)C1` (stereo not drawn) [Compound 20, 7-[1-methyl-2-oxo-2-[3-(2H-tetrazol-5-yl)-1-piperidyl]ethoxy]-4-phenyl-chromen-2-one], the IC50 is below 0.02 µM.
Consider `C[C@@H](Oc1ccc2c(-c3ccccc3)cc(=O)oc2c1)C(=O)N1CCC[C@H](C(=O)O)C1` [Compound 21, (3S)-1-[(2R)-2-(2-oxo-4-phenyl-chromen-7-yl)oxypropanoyl]piperidine-3-carboxylic acid], for which the IC50 was in the range of 0.1 to 1 µM.
`O=C(COc1ccc2c(-c3ccccc3)cc(=O)oc2c1)Nc1ccccn1` [Compound 22, 2-(2-oxo-4-phenyl-chromen-7-yl)oxy-N-(2-pyridyl)acetamide]: the IC50 was in the range of 0.1 to 1 µM.
To `COC(=O)C1CCCN(C(=O)COc2ccc3c(-c4ccccc4)cc(=O)oc3c2)C1` (stereo not drawn) [Compound 23, methyl 1-[2-(2-oxo-4-phenyl-chromen-7-yl)oxyacetyl]piperidine-3-carboxylate] belongs 1 to 10 µM; to `CC(Oc1ccc2c(-c3ccccc3)cc(=O)oc2c1)C(=O)Oc1ccccc1` (stereo not drawn) [Compound 24, phenyl 2-(2-oxo-4-phenyl-chromen-7-yl)oxypropanoate], 1 to 10 µM.
Next, `CC(Oc1ccc2c(-c3ccccc3)cc(=O)oc2c1)C(=O)Nc1ccccc1` (stereo not drawn) [Compound 25, 2-(2-oxo-4-phenyl-chromen-7-yl)oxy-N-phenyl-propanamide]: 0.1 to 1 µM; `CNC(=O)C(C)Oc1ccc2c(-c3ccccc3)cc(=O)oc2c1` (stereo not drawn) [Compound 26, N-methyl-2-(2-oxo-4-phenyl-chromen-7-yl)oxy-propanamide]: 0.1 to 1 µM; `CC(Oc1cc2oc(=O)cc(-c3ccccc3)c2cc1Cl)C(=O)NCC(O)c1ccccc1` (stereo not drawn) [Compound 27, 2-(6-chloro-2-oxo-4-phenyl-chromen-7-yl)oxy-N-(2-hydroxy-2-phenyl-ethyl)propanamide]: 1 to 10 µM.
Consider `CC(Oc1cc2oc(=O)cc(-c3ccccc3)c2cc1Cl)C(=O)Nc1ccc(CCCO)cc1` (stereo not drawn) [Compound 28, 2-(6-chloro-2-oxo-4-phenyl-chromen-7-yl)oxy-N-[4-(3-hydroxypropyl)phenyl]propanamide], for which the IC50 lay within 0.1 to 1 µM.
As to `CC(Oc1ccc2c(-c3ccccc3)cc(=O)oc2c1)C(=O)NCC(O)c1ccccc1` (stereo not drawn) [Compound 29, N-(2-hydroxy-2-phenyl-ethyl)-2-(2-oxo-4-phenyl-chromen-7-yl)oxy-propanamide], the IC50 lay in the range of 1 to 10 µM.
Regarding `CCOC(=O)[C@H]1CCCN(C(=O)[C@@H](C)Oc2ccc3c(-c4ccccc4)cc(=O)oc3c2)C1` [Compound 35, ethyl (3S)-1-[(2R)-2-(2-oxo-4-phenyl-chromen-7-yl)oxypropanoyl]piperidine-3-carboxylate], the IC50 fell in the range of 0.1 to 1 µM.
To `CC(Oc1ccc2c(-c3ccccc3)cc(=O)oc2c1)C(=O)N1CCC[C@H](C(=O)O)C1` (stereo partly drawn) [Compound 36, (3S)-1-[2-(2-oxo-4-phenyl-chromen-7-yl)oxypropanoyl]piperidine-3-carboxylic acid] belongs 0.1 to 1 µM.
Next, `CC(Oc1ccc2c(-c3ccccc3)cc(=O)oc2c1)C(=O)N1CCC[C@@H](C(=O)O)C1` (stereo partly drawn) [Compound 37, (3R)-1-[2-(2-oxo-4-phenyl-chromen-7-yl)oxypropanoyl]piperidine-3-carboxylic acid]: 1 to 10 µM; `COC(=O)[C@@H]1CCCN(C(=O)C(C)Oc2ccc3c(-c4ccccc4)cc(=O)oc3c2)C1` (stereo partly drawn) [Compound 38, methyl (3R)-1-[2-(2-oxo-4-phenyl-chromen-7-yl)oxypropanoyl]piperidine-3-carboxylate]: 1 to 10 µM; `CC(Oc1ccc2c(-c3ccccc3)cc(=O)oc2c1)C(=O)N1CCCCC1` (stereo not drawn) [Compound 39, 7-[1-methyl-2-oxo-2-(1-piperidyl)ethoxy]-4-phenyl-chromen-2-one]: 0.1 to 1 µM.

Values taken from patent US10703735B2, “4-phenyl-coumarin derivatives, processes for their preparation and uses thereof for the treatment of cancer” (Lead Discovery Center GmbH, priority 2018, dated 2020).
